From patent US7473790B2 (Pfizer Inc., priority 2003, dated 2009)

Target: T1, HCV polymerase (Hepatitis C virus genotype 1b, UniProt P26663)
T1 construct: 2.5 pmoles (0.15 μg) HCV polymerase protein in a final volume of 75 μL
Assay: HCV polymerase primer/template-directed transcription assay (32P-GTP incorporation, filter binding)
Type: biochemical
Conditions: for IC50: recombinant HCV polymerase, 30 minutes at 30° C., concentration giving 50% inhibition of polymerase-directed transcription, read-out: IC50; for inhibition at 50 µM: @ 50 uM compound
Outline: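 IC50s come from triplicate cpm, refit with an enzyme-concentration (30 nM) correction when under 200 nM. Reactions ran 30 min at 30° C in Tris pH 7.2 with MgCl2, 1 μM GTP spiked with α-32P-GTP, biotin-dG12 primer and poly(rC)300 template, with 1% DMSO. Incorporated label was collected on DE filtermats and counted.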

[1] = given where IC50 was impractical to calculate, read-out: percent inhibition

T1 sequence (P26663 2420-3010): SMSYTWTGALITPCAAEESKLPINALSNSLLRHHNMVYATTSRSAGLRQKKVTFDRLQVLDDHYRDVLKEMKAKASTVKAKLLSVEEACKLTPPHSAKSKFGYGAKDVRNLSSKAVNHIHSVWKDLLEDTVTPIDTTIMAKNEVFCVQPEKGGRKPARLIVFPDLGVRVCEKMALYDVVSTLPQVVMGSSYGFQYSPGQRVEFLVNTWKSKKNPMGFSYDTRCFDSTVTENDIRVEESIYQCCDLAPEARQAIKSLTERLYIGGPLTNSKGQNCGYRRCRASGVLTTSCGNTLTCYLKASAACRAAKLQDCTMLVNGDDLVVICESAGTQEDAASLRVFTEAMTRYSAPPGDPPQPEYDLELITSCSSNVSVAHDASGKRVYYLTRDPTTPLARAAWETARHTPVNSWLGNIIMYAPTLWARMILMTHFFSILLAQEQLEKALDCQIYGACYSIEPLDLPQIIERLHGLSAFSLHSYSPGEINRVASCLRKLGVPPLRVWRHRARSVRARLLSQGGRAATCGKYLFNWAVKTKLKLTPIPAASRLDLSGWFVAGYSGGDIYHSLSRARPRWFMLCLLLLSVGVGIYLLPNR

| SMILES | IC50 [nM] | also measured |
| --- | --- | --- |
| CC(C)Oc1ccc(CCC2(C3CCCC3)CC(O)=C(Sc3nc4cc(Cl)ccc4n3C(C)C)C(=O)O2)cc1Cl (centres unmarked) [C(25), 6-[2-(3-Chloro-4-isopropoxy-phenyl)-ethyl]-3-(5-chloro-1-isopropyl-1H-benzoimidazol-2-ylsulfanyl)-6-cyclopentyl-4-hydroxy-5,6-dihydro-pyran-2-one] | 20 | – |
| CCC1(C)CC(O)=C(Sc2nc3nc(C)cc(C)n3n2)C(=O)O1 (centres unmarked) [C(21), 3-(5,7-Dimethyl-[1,2,4]triazolo[1,5-a]pyrimidin-2-ylsulfanyl)-6-ethyl-4-hydroxy-6-methyl-5,6-dihydro-pyran-2-one] | – | inhibition at 50 µM [1]: 12% |
| N#CC1(c2ccc(CCC3(C4CCCC4)CC(=O)CC(=O)O3)cc2F)CC1 (centres unmarked) [A(86), 1-{4-[2-(2-Cyclopentyl-4,6-dioxo-tetrahydro-pyran-2-yl)-ethyl]-2-fluoro-phenyl}-cyclopropanecarbonitrile] | 400 | – |
| CC1(C)COc2ccc(CCC3(C4CCCC4)CC(=O)CC(=O)O3)cc21 (centres unmarked) [A(76), 6-Cyclopentyl-6-[2-(3,3-dimethyl-2,3-dihydro-benzofuran-5-yl)-ethyl]-dihydro-pyran-2,4-dione] | 5800 | – |
| CCc1cc(CCC2(C3CCCC3)CC(O)=C(Cc3nc4ncc(C)cn4n3)C(=O)O2)ccc1OCCOC (centres unmarked) [A(185), 6-Cyclopentyl-6-{2-[3-ethyl-4-(2-methoxy-ethoxy)-phenyl]-ethyl}-4-hydroxy-3-(6-methyl-[1,2,4]triazolo[1,5-a]pyrimidin-2-ylmethyl)-5,6-dihydro-pyran-2-one] | 8 | – |
| N#CCc1cccc(CCC2(C3CCCC3)CC(=O)CC(=O)O2)c1 (centres unmarked) [A(70), {3-[2-(2-Cyclopentyl-4,6-dioxo-tetrahydro-pyran-2-yl)-ethyl]-phenyl}-acetonitrile] | 9400 | – |
| O=C1OC(CCCCC2CCCCC2)(C2CCCC2)CC(O)=C1Sc1nnc(-c2ccncc2)[nH]1 (centres unmarked) [C(32), 6-(4-Cyclohexyl-butyl)-6-cyclopentyl-4-hydroxy-3-(5-pyridin-4-yl-4H-[1,2,4]triazol-3-ylsulfanyl)-5,6-dihydro-pyran-2-one] | 270 | – |
| CCc1cc(CCC2(C3CCCC3)CC(O)=C(Cc3nc4nc(C)cc(C)n4n3)C(=O)O2)c(O)cc1OC (centres unmarked) [A(187), 6-Cyclopentyl-3-(5,7-dimethyl-[1,2,4]triazolo[1,5-a]pyrimidin-2-ylmethyl)-6-[2-(5-ethyl-2-hydroxy-4-methoxy-phenyl)-ethyl]-4-hydroxy-5,6-dihydro-pyran-2-one] | 4 | – |
| COc1ccc(CCC2(C3CCCC3)CC(O)=C(Cc3nc4nc(C)cc(C)n4n3)C(=O)O2)cc1C (centres unmarked) [B(09), 6-Cyclopentyl-3-(5,7-dimethyl-[1,2,4]triazolo[1,5]pyrimidin-2-ylmethyl)-4-hydroxy-6-[2-(4-methoxy-3-methyl-phenyl)-ethyl]-5,6-dihydro-pyran-2-one] | 54 | – |
| N#Cc1ccccc1CCC1(C2CCCC2)CC(=O)CC(=O)O1 (centres unmarked) [A(46), 2-[2-(2-Cyclopentyl-4,6-dioxo-tetrahydro-pyran-2-yl)-ethyl]-benzonitrile] | 73000 | – |
| COc1ccc(CCC2(C3CCCC3)CC(O)=C(Cc3ccc(-c4csnn4)cc3)C(=O)O2)cc1Cl (centres unmarked) [B(05), 6-[2-(3-Chloro-4-methoxy-phenyl)-ethyl]-6-cyclopentyl-4-hydroxy-3-(4-[1,2,3]thiadiazol-4-yl-benzyl)-5,6-dihydro-pyran-2-one] | 130 | – |
| COC1=CC(=O)OC(CCc2ccc(C(C)(C)C#N)c(F)c2)(C2CCCC2)C1 (centres unmarked) [A(145), 2-{4-[2-(2-Cyclopentyl-4-methoxy-6-oxo-3,6-dihydro-2H-pyran-2-yl)-ethyl]-2-fluoro-phenyl}-2-methyl-propionitrile] | 3900 | – |
| COc1ccc(CCC2(C3CCCC3)CC(O)=C(Sc3ccc4ccccc4n3)C(=O)O2)cc1Cl (centres unmarked) [C(66), 6-[2-(3-chloro-4-methoxyphenyl)ethyl]-6-cyclopentyl-4-hydroxy-3-(quinolin-2-ylthio)-5,6-dihydro-2H-pyran-2-one] | 900 | – |
| CCc1cc(O)cc(CCC2(C3CCCC3)CC(O)=C(Cc3nc4nc(C)cc(C)n4n3)C(=O)O2)c1 (centres unmarked) [A(186), 6-Cyclopentyl-3-(5,7-dimethyl-[1,2,4]triazolo[1,5-a]pyrimidin-2-ylmethyl)-6-[2-(3-ethyl-5-hydroxy-phenyl)-ethyl]-4-hydroxy-5,6-dihydro-pyran-2-one] | 40 | – |
| CC(C)c1ccc(SCC2(C3CCCC3)CC(=O)CC(=O)O2)cc1 (centres unmarked) [I(4), 6-cyclopentyl-6-{[(4-isopropylphenyl)thio]methyl}dihydro-2H-pyran-2,4(3H)-dione] | – | inhibition at 50 µM [1]: 44% |
| COc1cc(OC)c(CCC2(C3CCCC3)CC(O)=C(Cc3cc(=O)n4c(C)csc4n3)C(=O)O2)cc1Cl (centres unmarked) [B(59), 7-({6-[2-(5-Chloro-2,4-dimethoxyphenyl)ethyl]-6-cyclopentyl-4-hydroxy-2-oxo-5,6-dihydro-2H-pyran-3-yl}methyl)-3-methyl-5H-[1,3]thiazolo[3,2-a]pyrimidin-5-one] | 6 | – |
| COc1cc(OC)c(CCC2(C3CCCC3)CC(O)=C(Sc3nnc(-c4ccc(O)cc4)[nH]3)C(=O)O2)cc1Cl (centres unmarked) [C(81), 6-[2-(5-chlor-2,4-dimethoxyphenyl)ethyl]-6-cyclopentyl-4-hydroxy-3-{[5-(4-hydroxyphenyl)-4H-1,2,4-triazol-3-yl]thio}-5,6-dihydro-2H-pyran-2-one] | 14 | – |
| COc1ccc(CCC2(C3CCCC3)CC(OCc3ccccn3)=CC(=O)O2)cc1Cl (centres unmarked) [G(2), 6-[2-(3-Chloro-4-methoxy-phenyl)-ethyl]-6-cyclopentyl-4-(pyridin-2-ylmethoxy)-5,6-dihydro-pyran-2-one] | – | inhibition at 20 µM (@ 20 uM compound, given where IC50 was impractical to calculate, read-out: percent inhibition): 3% |
| CCNC(=O)C(C)(C)c1ccc(CCC2(C3CCCC3)CC(=O)CC(=O)O2)cc1 (centres unmarked) [A(51), 2-{4-[2-(2-Cyclopentyl-4,6-dioxo-tetrahydro-pyran-2-yl)-ethyl]-phenyl}-N-ethyl-isobutyramide] | 3900 | – |
| CCC(C#N)(CC)c1c(F)cc(CCC2(C3CCCC3)CC(O)=C(Cc3nc4ncc(C)cn4n3)C(=O)O2)cc1F (single isomer, unassigned; (+)) [A(263), (+)-2-(4-{2-[2-Cyclopentyl-4-hydroxy-5-(6-methyl-[1,2,4]triazolo[1,5-a]pyrimidin-2-ylmethyl)-6-oxo-3,6-dihydro-2H-pyran-2-yl]-ethyl}-2,6-difluoro-phenyl)-2-ethyl-butyronitrile] | 7 | – |
| Cc1nc(CC2=C(O)CC(CCc3ccc(C(F)F)c(F)c3)(C3CCCC3)OC2=O)n(C)n1 (centres unmarked) [B(69), 6-Cyclopentyl-6-{2-[4-(difluoromethyl)-3-fluorophenyl]ethyl}-3-[(1,3-dimethyl-1H-1,2,4-triazol-5-yl)methyl]-4-hydroxy-5,6-dihydro-2H-pyran-2-one] | 800 | – |
| O=C1CC(=O)OC(CCNC(=O)CCc2ccco2)(C2CCCC2)C1 (centres unmarked) [H(1), N-[2-(2-Cyclopentyl-4,6-dioxo-tetrahydro-pyran-2-yl)-ethyl]-3-furan-2-yl-propionamide] | 1000 | – |
| CCc1ccc(OCCOC)c(CCC2(C3CCCC3)CC(O)=C(Cc3nc4nc(C)cc(C)n4n3)C(=O)O2)c1 (centres unmarked) [A(177), 6-Cyclopentyl-3-(5,7-dimethyl-[1,2,4]triazolo[1,5-a]pyrimidin-2-ylmethyl)-6-{2-[5-ethyl-2-(2-methoxy-ethoxy)-phenyl]-ethyl}-4-hydroxy-5,6-dihydro-pyran-2-one] | 14 | – |
